Data on seven molecules can be found in patent publication EP0334244A2, “Bradykinin Antagonist Peptides” (THE PROCTER & GAMBLE COMPANY, priority 1988, dated 1989).

Values joined by “and” are separate entries in the source; they are usually repeats but may differ in a detail not shown here. Equal entries are not always repeated. Non-standard residues stand in square brackets, D forms with d. Residues, ends and D or L forms follow the SMILES beside them. Hyp = O=C(O)[C@@H]1C[C@@H](O)CN1

For assay [1], the target named is T1, Bradykinin receptor (Mus musculus, UniProt P32299).
T1 construct: suspensions of cultured NG108-15 cells loaded with the Ca²⁺-sensitive fluorescent indicator fura-2; endogenous in cells; host or cells: NG108-15 cells (University of California at San Francisco, Cell Culture Facility)
T1 sequence (P32299 1-392): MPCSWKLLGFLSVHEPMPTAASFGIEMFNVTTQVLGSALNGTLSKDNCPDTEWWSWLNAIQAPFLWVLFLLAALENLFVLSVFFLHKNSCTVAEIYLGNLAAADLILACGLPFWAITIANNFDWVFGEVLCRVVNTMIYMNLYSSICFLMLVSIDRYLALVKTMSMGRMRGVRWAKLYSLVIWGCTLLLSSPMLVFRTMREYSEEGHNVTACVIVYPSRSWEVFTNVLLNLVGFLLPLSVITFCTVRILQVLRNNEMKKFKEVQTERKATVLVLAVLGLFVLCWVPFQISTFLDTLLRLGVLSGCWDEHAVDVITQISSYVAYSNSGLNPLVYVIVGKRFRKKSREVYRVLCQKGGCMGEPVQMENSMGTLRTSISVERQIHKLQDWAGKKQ
Nature of the assay: Cell culture method: inhibition of bradykinin-induced increase in cytosolic free calcium in fura-2 loaded NG108-15 cells. It is filed as cell-based. The following applies: for agonist / antagonist activity in this assay: result in words. How it is done: In many different tissues and isolated cell populations, bradykinin induces a receptor mediated rise in the concentration of cytosolic free calcium ([Ca²⁺]i). In cultured NG108-15 neuronal cells (University of California at San Francisco, Cell Culture Facility, San Francisco, California), bradykinin increases [Ca²⁺]i in a dose dependent manner from a basal concentration of about 260 nM to approximately 1000 nM at a maximally effective concentration of bradykinin (1 X 10⁻⁶M). The half maximally effective concentration (EC₅₀) of bradykinin is 3 X 10⁻⁹M. Bradykinin receptor antagonist potency is evaluated by determining the concentration of antagonist required to inhibit by 50% (IC₅₀) the increase in [Ca²⁺]i induced by 1 X 10⁻⁹M bradykinin (Bachem, Torrance, CA). NG108-15 cells are cultured in […] Corning flasks (Fisher Scientific, Cincinnati, OH) in Dulbecco's modified minimal essential medium (high glucose; Gibco, Grand Island, NY) containing 5% fetal bovine serum (Hyclone, Logan, UT) and HAT (hypoxanthine-aminopterin-thymidine, Sigma, St. Louis, MO). The concentration of cytosolic free Ca²⁺ ([Ca²⁺]i) is measured in suspensions of cultured NG108-15 cells loaded with the Ca²⁺-sensitive fluorescent indicator fura-2 essentially as described by Osugi et al. (Journal Pharmacol. Exp. Ther., Vol. 240, (1987), pp. 617-622). Flasks of confluent cells are incubated for 60 minutes at 37°C in 20 mls of HEPES-buffered saline [140 mM NaCl, 5.4 mM KCl, 0.8 mM MgSO₄, 1.0 mM CaCl₂, 20 mM HEPES (N-2-. hydroxyethylpiperazine-N′-2-ethanesulfonic acid; Behring Diagnostics, LaJolla, CA), 10 mM glucose, 0.25% bovine serum albumin (Cat. #A-4503; Sigma Chemical Co., St. Louis, MO)] containing fura-2 acetoxymethyl ester (Molecular Probes, Inc., Eugene, OR) at a final concentration of 2 µM. The flasks are then washed twice with 30 mls of HEPES-buffered saline and the cells detached from the flasks in 15 mls of HEPES-buffered saline. The cell suspension is centrifuged at 25°C for 5 minutes at 350 x g and the cell pellet resuspended to a final volume of approximately 10 ml of HEPES-buffered saline/flask. The cell suspension is maintained at room temperature prior to use. The fluorescence of the fura-2 loaded NG108-15 cells is measured at an excitation wavelength of 340 nm (10 nM slit) and an emission wavelength of 500 nm (10 nM slit) in a Perkin-Elmer LS-5 fluorescence spectrophotometer fitted with a magnetic stirrer and a thermostatted cell holder. An aliquot of the cell suspension (1.37 ml) is placed in a cylindrical glass cuvette (internal diameter of 8 mm) containing a teflon coated stir bar and warmed to 37°C in a water bath. After 5 minutes, the cuvette is placed in the cell holder of the fluorometer and stirring is initiated just prior to the addition of a test sample. Routinely, a test sample (0.014 ml of a 100-fold concentration solution) is added to the cuvette 30 seconds prior to the addition of 1 X 10⁻⁹ M bradykinin. Fluorescence is recorded continuously during the addition of the test sample and bradykinin. Following completion of the fluorescence measurements, the cells are lysed with Triton X-100 at a final concentration of 10% (v/v) and the fluorescence of the Ca²⁺ saturated fura-2 (Fmax; fluorescence in the presence of 1 mM Ca²⁺) and the Mn²⁺-quenched fura-2 (autofluorescence (AF); fluorescence in the presence of 2 mM Mn²⁺) determined. […]

Assay [2] deals with Male CF-1 mice. The experiment in a line: Mouse abdominal constriction test (phenylquinone-induced writhing). In kind it is in vivo. The following applies: for Change from Control (%): I.P.; for bradykinin agonist / antagonist activity in the assay: result in words, mouse abdominal constriction assay. How it is done: Compounds of the present invention are tested for analgesic activity using the mouse abdominal constriction assay. This assay is described in Hendershot, L.C., & J. Forsaith, "Antagonism of the Frequency of Phenylquinone-induced Writhing in the Mouse by Weak Analgesics and Nonanalgesics", J. Pharmacol., Vol. 125, (1959), pp. 237-240, and in Methods in Narcotics Research, S. Ehrenpreis and A. Neidle, (eds.), Marcel Dekker, Inc., New York (pub.), 1975, pp. 64-65, the disclosures of both these references being incorporated herein in their entirety by reference.
Male CF-1 mice (Charles River Breeding Laboratories, Inc.), weighing approximately 20 grams and food fasted overnight, are used in these assays. Test compounds are prepared for intraperitoneal (i.p.) injection, with compounds of the present invention being prepared in distilled deionized water so that the appropriate dose is given in 0.2 mls to a 20 gram mouse.
An i.p. injection of 0.02% phenylquinone (2.5 mg/kg) is given at a concentration of 0.25 ml/20 grams body weight. Five minutes later the mice receive an i.p. injection of test compound. Five minutes after the i.p. injection of test compound, the number of full body writhes are counted for the succeeding ten minutes. Percent analgesia in this assay is calculated as follows: [formula]
The mouse abdominal constriction assay was used to measure the antagonist activity of peptides of the present invention and related peptides as shown in Table 2: Table 2
Background: In writhing tests, fewer writhes than in controls are read as antinociception.

The subject of assay [3] is guinea pig ileum. The experiment in a line: Guinea pig ileum assay (muscle contraction). The following applies: negative log of the dose causing half maximal contraction. The method, then: The bradykinin antagonists are assayed on guinea pig ileum for inhibition of the muscle-contracting activity of bradykinin, according to the commonly accepted assay method for bradykinin and related kinins as described in Stewart, J.M., "Chemistry and Biological Activity of Peptides Related to Bradykinin", Chapter V of Bradykinin, Kallidin and Kallikrein, (Handbook of Expt. Pharmacol.), E. G. Erdoes (ed.), Vol 25, Springer Verlag (pub.), 1970, pp. 242-243. The inhibition potencies are determined on isolated guinea pig ileum, according to the commonly accepted manner described for antagonists of biologically active compounds in Schild, H.O., "pA, a New Scale for the Measurement of Drug Antagonism", Br. J. Pharmacol., Vol. 2, No. 3 (1947), pp. 189-206). In the assay, a dose-response curve is determined for the reference substance bradykinin. The dose of bradykinin which produces a half maximal contraction of tissue is the ED₅₀ dose. An amount of bradykinin equivalent to twice the ED₅₀ dose is administered to the tissue 30 seconds after the start of incubation of the tissue with a dose of antagonist. Doses of antagonist are increased in this protocol until pre-incubation with a dose of antagonist reduces the contraction in response to the double ED₅₀ dose of bradykinin to response of a single ED₅₀ dose of bradykinin. […]

Consider `N=C(N)NCCC[C@H](NC(=O)[C@H](Cc1ccccc1)NC(=O)[C@@H](Cc1ccccc1)NC(=O)[C@H](CO)NC(=O)[C@H](Cc1ccccc1)NC(=O)CNC(=O)[C@@H]1C[C@@H](O)CN1C(=O)[C@@H]1CCCN1C(=O)[C@@H](N)CCCNC(=N)N)C(=O)O` [Compound 1, H-Arg-Pro-Hyp-Gly-Phe-Ser-DPhe-Phe-Arg-OH, reference compound] (H-RP[Hyp]GFS[dF]FR-OH), for which the IC₅₀ entry in assay [1] (inhibition by 50% of the increase in [Ca²⁺]i induced by 1 X 10⁻⁹M bradykinin) is “Partial Agonist*”. Moreover, in assay [1], the “agonist / antagonist activity in this assay” value is “high agonist (bradykinin-like) activity”. Besides, the “Change from Control (%)” value in assay [2] (Dose 25 mg/kg, negative value = agonist) is reported as -31%. The “bradykinin agonist / antagonist activity in the assay” value in assay [2] was “bradykinin agonist”.

Take `N=C(N)NCCC[C@H](NC(=O)[C@H](Cc1ccccc1)NC(=O)[C@@H](Cc1ccccc1)NC(=O)[C@H](CO)NC(=O)[C@H](Cc1ccccc1)NC(=O)CNC(=O)[C@H](CC(N)=O)NC(=O)[C@@H]1CCCN1C(=O)[C@@H](N)CCCNC(=N)N)C(=O)O` [Compound 2, H-Arg-Pro-Asn-Gly-Phe-Ser-DPhe-Phe-Arg-OH] (H-RPNGFS[dF]FR-OH): the “agonist / antagonist activity in this assay” value in assay [1] is “Compounds 2 and 6 are peptides of the present invention and both exhibit only antagonist (no agonist) activity in this assay”. Further, in assay [2] (Dose 50 mg/kg), the “Change from Control (%)” value amounted to 57%. Further, the “bradykinin agonist / antagonist activity in the assay” value in assay [2] is “bradykinin antagonist activity”.

On to `N=C(N)NCCC[C@H](NC(=O)[C@H](Cc1ccccc1)NC(=O)[C@@H](Cc1ccccc1)NC(=O)[C@H](CO)NC(=O)[C@H](Cc1ccccc1)NC(=O)[C@H]1CCCN1C(=O)[C@H](CC(N)=O)NC(=O)[C@@H]1CCCN1C(=O)[C@@H](N)CCCNC(=N)N)C(=O)O` [Compound 3, H-Arg-Pro-Asn-DPro-Phe-Ser-DPhe-Phe-Arg-OH] (H-RPN[dP]FS[dF]FR-OH), for which, in assay [2] (Dose 50 mg/kg), the “Change from Control (%)” value was 72% and 61%. Moreover, in assay [2], the “bradykinin agonist / antagonist activity in the assay” value is “bradykinin antagonist activity”.

On to `N=C(N)NCCC[C@@H](N)C(=O)N[C@@H](CCCNC(=N)N)C(=O)N1CCC[C@H]1C(=O)N[C@@H](CC(N)=O)C(=O)NCC(=O)N[C@@H](Cc1ccccc1)C(=O)N[C@@H](CO)C(=O)N[C@H](Cc1ccccc1)C(=O)N[C@@H](Cc1ccccc1)C(=O)N[C@@H](CCCNC(=N)N)C(=O)O` [Compound 6, H-DArg-Arg-Pro-Asn-Gly-Phe-Ser-DPhe-Phe-Arg-OH] (H-[dR]RPNGFS[dF]FR-OH), for which the “agonist / antagonist activity in this assay” value in assay [1] was “Compounds 2 and 6 are peptides of the present invention and both exhibit only antagonist (no agonist) activity in this assay”.

“H-Arg-Pro-Aap-Gly-Phe-Ser-DPhe-Phe-Arg-OH [Compound 4]”: in assay [2] (Dose 50 mg/kg), the “Change from Control (%)” value is 46%. Also, in assay [2], the “bradykinin agonist / antagonist activity in the assay” value is on record as “bradykinin antagonist activity”.

On to “H-DArg-Arg-Pro-Hyp-Gly-Phe-Ser-DPhe-Phe-Arg-OH [Compound 5]”, for which the agonist activity in assay [1] (printed beside the IC₅₀) is listed as 10%. In addition, in assay [1], the “agonist / antagonist activity in this assay” value is recorded as “small amount of agonist activity”.

On to “bradykinin (RPPGFSPFR; Bradykinin; UniProt P01042 381-389, looked up) [naturally occurring agonist nonapeptide]”, for which, in assay [3], the pD2 value is reported as 7.4. Further, the “[Ca²⁺]i at maximally effective concentration” value in assay [1] (1 X 10⁻⁶M bradykinin, basal concentration about 260 nM) is listed as “approximately 1000 nM”.
